A word on the IC50: it is the midpoint of a concentration-inhibition curve. A word on the IC90: it is the concentration needed for an effect of 90%. Higher therefore signals weaker potency. What is called CC50 is the concentration at which the toxic effect on the cells reaches its halfway point. Higher therefore signals lower toxicity to the cells.

For the experiment, the system named is M. tuberculosis H37Rv growth inhibition. The experiment is described as follows: M. tuberculosis H37Rv growth inhibitors, H37Rv strain (AID 1626). The note with it: for IC90: measured here: IC90 against H37Rv; for CC50: measured here: Vero cell cytotoxicity.

As to `Cc1sc2cc3c(c(C(=O)c4ccccc4)[n+]2c1C)-c1cccc2cccc-3c12`, the IC50 was 1.52 µM, the concentration for an effect of 90% (IC90) was 2.33 µM and the CC50 was greater than 40 µM.
Regarding `COc1ccc(CNCc2cc3c(C(C)(C)C)nn(-c4ccccc4)c3[nH]c2=O)cc1`, the IC50 is 11.4 µM, the IC90 was found to be 13 µM and the CC50 is greater than 40 µM.
On to `COc1cc(/C=C(\C#N)C(=O)NC2CCCCC2C)ccc1OS(=O)(=O)c1ccc(C)cc1` (configuration not stated), for which the IC90 was greater than 100 µM and the 50% cytotoxic concentration (CC50) worked out at 9.49 µM.
As to `Cc1nn(-c2ccccc2)c(N)c1C(c1ccc(C(C)C)cc1)c1c(C)nn(-c2ccccc2)c1N`, the IC50 is 8.73 µM, the IC90 stood at 13 µM and the CC50 was greater than 40 µM.
`CCCN(CCC)C(=O)c1cc([N+](=O)[O-])cc2c1-c1ccc([N+](=O)[O-])cc1C2=C(C#N)C#N`: the IC50 was 8 µM, the IC90 amounted to 9.91 µM and the CC50 amounted to 33.6 µM.
In the case of `CCCc1cc(NCCCn2ccnc2)n2nc(C)c(-c3ccccc3)c2n1`, the IC50 was 6.28 µM, the concentration for an effect of 90% (IC90) stood at 9.38 µM and the CC50 is greater than 40 µM.
As to `Oc1cccc2ccc(/C=C/c3c(F)cccc3Cl)nc12`, the IC50 was 1.37 µM, the IC90 came to 6.64 µM and the CC50 is greater than 40 µM.
As to `COC(=O)CCCC(=O)Nc1ccc(Cl)c(Cl)c1`, the IC50 is 23.1 µM and the IC90 was greater than 100 µM.
Taken in the same sequence, the figures for `COc1ccc(C(=O)CNc2ccc3ccccc3c2)cc1` were 4.74 µM and greater than 100 µM.
Taken in the same sequence, the figures for `CCCOC(=O)c1ccc(NC(=O)COC)cc1` were 11.9 µM and greater than 100 µM.
In turn, `COc1ccc(NC2(C#N)CCCCC2)cc1` had an IC90 greater than 100 µM.
Consider `O=C(CSCc1nc2ccccc2[nH]1)Nc1ccc(Oc2ccccc2)cc1`, for which the IC50 was 22.9 µM, the IC90 was greater than 100 µM and the cytotoxic concentration (CC50) is greater than 40 µM.
Turning to `COc1ccccc1N1CCN(c2ncc(C(=O)N3CCN(c4cccc(Cl)c4)CC3)c3ccccc23)CC1`, the CC50 was greater than 40 µM.
Turning to `CC(C)C(=O)N1CCN(c2ccc(NC(=O)c3ccc4c(c3)OCCO4)cc2Cl)CC1`, the IC90 is greater than 100 µM and the cytotoxic concentration (CC50) stood at 19.8 µM.
Take `CCCOC(=O)c1ccc(NC(=O)c2ccc(Br)o2)cc1`: the IC50 was 0.683 µM and the IC90 stood at 2.82 µM.
As to `O=C(NC1CCCCC1)C(c1ccc2ncccc2c1)N(Cc1ccc2c(c1)OCO2)C(=O)c1ccc2c(c1)OCCO2` (configuration not stated), the IC50 was 12.7 µM, the IC90 was greater than 100 µM and the CC50 was greater than 40 µM.
Take `OC(CN1CCN(Cc2ccccc2)CC1)Cn1c2ccccc2c2ccccc21` (configuration not stated): the IC50 was 16.5 µM, the concentration for an effect of 90% (IC90) was 22.9 µM and the CC50 was greater than 40 µM.
As for `O=C(Nc1ccc(-c2nc3ccccc3c(=O)o2)cc1)c1ccco1`, the IC50 is less than 0.195 µM and the IC90 is greater than 100 µM.
As for `COc1cccc(C(=O)Nc2nc(-c3ccccc3)c(-c3ccccc3)o2)c1`, the IC50 was less than 0.195 µM, the IC90 came to 6.62 µM and the CC50 is greater than 40 µM.
Consider `C/C(=C\C(=O)c1ccc(C)o1)Nc1ccc2c(c1)OCO2`, for which the IC90 was greater than 100 µM.
In the case of `CC(C)C1N=C(c2ccc3c(c2)OCO3)CC(c2ccccc2O)N1` (configuration not stated), the concentration for half-maximal inhibition (IC50) is 10.6 µM, the IC90 was determined as 14.3 µM and the CC50 worked out at 26.8 µM.
Regarding `C(=C\c1nc(N2CCCC2)c2ccccc2n1)/c1ccccc1`, the concentration for half-maximal inhibition (IC50) is 5.33 µM, the IC90 was 7.91 µM and the CC50 is greater than 40 µM.
In the case of `O=C(CSc1ccc(-c2ccccn2)nn1)c1ccc(F)cc1`, the IC50 is 22.2 µM and the IC90 was determined as 36 µM.
Taken in the same sequence, the figures for `COc1ccc(/C=C2\Sc3ccc(C(=O)NCc4cccnc4)cc3N(C)C2=O)cc1OC` were 13 µM and 31.1 µM.
With `COC(=O)c1cccc(NC(=O)NC23CC4CC(CC(C4)C2)C3)c1`, the 50% inhibitory concentration (IC50) is 23.9 µM, the IC90 was greater than 100 µM and the CC50 is greater than 40 µM.
Taken in the same sequence, the figures for `CC(C)(C)c1cc(NCCCn2ccnc2)n2ncc(-c3ccc(Cl)cc3)c2n1` were 0.939 µM, 1.43 µM and 22.3 µM.
`CN=C(Nc1cc(Cl)ccc1Cl)SC1CC(=O)N(c2ccc(C(=O)OC)cc2)C1=O` (configuration not stated): the IC50 is 24.9 µM, the IC90 was greater than 100 µM and the CC50 is greater than 40 µM.
`CCCOc1ccc(-c2nc(C#N)c(NCCCn3ccnc3)o2)cc1`: the half-inhibitory concentration (IC50) was 15 µM, the IC90 is greater than 100 µM and the CC50 was greater than 40 µM.
For `C=C1C(=O)O[C@@H]2C[C@@H](C)[C@@H]3C=CC(=O)[C@@]3(C)[C@@H](OC(C)=O)[C@H]12` the same measures were 2.07 µM, 3.51 µM and 2.02 µM.
For `CCCCc1ccc(NC(=O)C(C)CC)cc1` (configuration not stated), the IC50 is 6.21 µM and the IC90 is greater than 100 µM.
Taken in the same sequence, the figures for `CCOC(=O)CSc1nc(N)c(C#N)c(-c2ccc(OCC)cc2)c1C#N` were 0.472 µM and 1.32 µM.
Turning to `CCCC(=O)Nc1cccc(-c2nc3ccccc3c(=O)o2)c1`, the IC50 is 5.72 µM and the IC90 was determined as 12.1 µM.
As to `O=[N+]([O-])c1cc(S(=O)(=O)Nc2ccccc2)ccc1N1CCN(c2ccccc2)CC1`, the IC50 is 14.5 µM, the 90% effect concentration (IC90) stood at 25.5 µM and the CC50 came out at 28.2 µM.
Taken in the same sequence, the figures for `Cc1ccc(N(CCC#N)C(=O)CCl)cc1C` were 19.7 µM, 38.4 µM and 1.94 µM.
On to `O=C(Nc1nnc(-c2cccnc2)o1)c1cccc(Cl)c1`, for which the IC50 is 3.27 µM, the IC90 was greater than 100 µM and the CC50 was 33.7 µM.
For `Cc1[nH]c2ccccc2c1C1=NNC(=Nc2ccc(F)cc2)SC1` the same measures were 13.3 µM, 49.8 µM and greater than 40 µM.
For `O=C(CNC(=O)/C(=C/c1ccccc1)NC(=O)c1ccc(Br)cc1)OCc1ccccc1` the same measures were 4.09 µM, 6.63 µM and 15.3 µM.
With `CC(=O)n1cc(N(C(=O)CCl)c2ccccc2)c2ccccc21`, the IC50 is 3.1 µM, the IC90 was 7.33 µM and the half-maximal cytotoxic concentration (CC50) worked out at 0.792 µM.
`O=C(CSc1ccccn1)Nc1ccc2ccccc2c1`: the half-maximal inhibitory concentration (IC50) was 8.69 µM and the IC90 is greater than 100 µM.
For `CCn1nnc(NC(=O)c2ccc(-c3ccc(Cl)cc3)o2)n1` the same measures were 19.8 µM and greater than 100 µM.
In the case of `Cc1cc(C)n(-c2nc(N(c3ccccc3)c3ccccc3)nc(-n3nc(C)cc3C)n2)n1`, the IC50 was 2.76 µM, the IC90 came out at 10.4 µM and the CC50 was greater than 40 µM.
Regarding `CCn1ccnc1CN(C)Cc1cn(-c2cc(C)ccc2C)nc1-c1ccccc1`, the 50% inhibitory concentration (IC50) was 5.88 µM and the 90% effect concentration (IC90) worked out at 10.3 µM.
As for `O=C(CSc1cccc2cccnc12)N1CCCC1`, the 50% cytotoxic concentration (CC50) came out at 27.4 µM.
Take `COc1ccc(Nc2cc(C)nc(-n3nc(C)cc3C)n2)cc1`: the IC50 is 6.15 µM, the IC90 is greater than 100 µM and the CC50 was greater than 40 µM.
Taken in the same sequence, the figures for `c1ccc2c(-c3nc(C4CCCCC4)no3)cc(-c3ccncc3)nc2c1` were 7 µM, 10.9 µM and greater than 40 µM.
